Tested on: microfilariae of Dirofilaria immitis
Test: Dirofilaria immitis, Microfilaria (DiMF) In vitro Assay
Assay type: cell-based
Conditions: 72 h, read-out: DiMF Minimum Effective Dose (MED), approximately 72 hours incubation, microfilariae assessed for survival or paralysis

Work on `CC(C)C[C@H]1C(=O)O[C@H](Cc2ccc(Cn3ccc4cccnc43)cc2)C(=O)N(C)[C@@H](CC(C)C)C(=O)O[C@H](C)C(=O)N(C)[C@@H](CC(C)C)C(=O)O[C@H](Cc2ccccc2)C(=O)N(C)[C@@H](CC(C)C)C(=O)O[C@H](C)C(=O)N1C` [Example 10-14, (3S,6R,9S,12R,15S,18R,21S,24R)-6-(4-((1H-pyrrolo[2,3-b]pyridin-1-yl)methyl)benzyl)-18-benzyl-3,9,15,21-tetraisobutyl-4,10,12,16,22,24-hexamethyl-1,7,13,19-tetraoxa-4,10,16,22-tetraazacyclotetracosan-2,5,8,11,14,17,20,23-octaone] yielded a minimal effective concentration of 0.01 to 0.1 µM.

In the case of `CC(C)C[C@H]1C(=O)O[C@H](C)C(=O)N(C)[C@@H](CC(C)C)C(=O)O[C@H](Cc2ccccc2)C(=O)N(C)[C@@H](CC(C)C)C(=O)O[C@H](C)C(=O)N(C)[C@@H](CC(C)C)C(=O)O[C@@H](Cc2ccc(CN3CCCCC3)cc2)C(=O)N1C` [Example 10-2, (3S,6R,9S,12R,15S,18S,21S,24R)-6-benzyl-3,9,15,21-tetraisobutyl-4,10,12,16,22,24-hexamethyl-18-(4-(piperidin-1-ylmethyl)benzyl)-1,7,13,19-tetraoxa-4,10,16,22-tetraazacyclotetracosan-2,5,8,11,14,17,20,23-octaone], the minimal effective concentration is reported as 0.01 to 0.1 µM.

In the case of `CC(C)C[C@H]1C(=O)O[C@H](Cc2ccc(Cn3cc(S(=O)(=O)N4CCC4)cn3)cc2)C(=O)N(C)[C@@H](CC(C)C)C(=O)O[C@H](C)C(=O)N(C)[C@@H](CC(C)C)C(=O)O[C@H](Cc2ccccc2)C(=O)N(C)[C@@H](CC(C)C)C(=O)O[C@H](C)C(=O)N1C` [Example 2-27, (3S,6R,9S,12R,15S,18R,21S,24R)-6-(4-((4-(azetidin-1-ylsulfonyl)-1H-pyrazol-1-yl)methyl)benzyl)-18-benzyl-3,9,15,21-tetraisobutyl-4,10,12,16,22,24-hexamethyl-1,7,13,19-tetraoxa-4,10,16,22-tetraazacyclotetracosan-2,5,8,11,14,17,20,23-octaone], the minimal effective concentration is reported as 0.01 to 0.1 µM.

In the case of `CSc1cnn(Cc2ccc(C[C@H]3OC(=O)[C@H](CC(C)C)N(C)C(=O)[C@@H](C)OC(=O)[C@H](CC(C)C)N(C)C(=O)[C@@H](Cc4ccc(Cn5cc(SC)cn5)cc4)OC(=O)[C@H](CC(C)C)N(C)C(=O)[C@@H](C)OC(=O)[C@H](CC(C)C)N(C)C3=O)cc2)c1` [Example 1b-20, (3S,6R,9S,12R,15S,18R,21S,24R)-3,9,15,21-tetraisobutyl-4,6,10,16,18,22-hexamethyl-12,24-bis[[4-[(4-methylsulfanylpyrazol-1-yl)methyl]phenyl]methyl]-1,7,13,19-tetraoxa-4,10,16,22-tetrazacyclotetracosane-2,5,8,11,14,17,20,23-octaone], the minimal effective concentration is reported as 0.01 to 0.1 µM.

With `CC(C)C[C@H]1C(=O)O[C@H](Cc2ccc(Cn3cc(C#CC(C)(C)C)cn3)cc2)C(=O)N(C)[C@@H](CC(C)C)C(=O)O[C@H](C)C(=O)N(C)[C@@H](CC(C)C)C(=O)O[C@H](Cc2ccccc2)C(=O)N(C)[C@@H](CC(C)C)C(=O)O[C@H](C)C(=O)N1C` [Example 2-71, (3S,6R,9S,12R,15S,18R,21S,24R)-6-benzyl-18-(4-((4-(3,3-dimethylbut-1-yn-1-yl)-1H-pyrazol-1-yl)methyl)benzyl)-3,9,15,21-tetraisobutyl-4,10,12,16,22,24-hexamethyl-1,7,13,19-tetraoxa-4,10,16,22-tetraazacyclotetracosan-2,5,8,11,14,17,20,23-octaone] the minimal effective concentration was 0.01 to 0.1 µM.

`CC(=O)NCc1cnn(Cc2ccc(C[C@H]3OC(=O)[C@H](CC(C)C)N(C)C(=O)[C@@H](C)OC(=O)[C@H](CC(C)C)N(C)C(=O)[C@@H](Cc4ccccc4)OC(=O)[C@H](CC(C)C)N(C)C(=O)[C@@H](C)OC(=O)[C@H](CC(C)C)N(C)C3=O)cc2)c1` [Example 2-52, N-((1-(4-(((2R,5S,8R,11S,14R,17S,20R,23S)-14-benzyl-5,11,17,23-tetraisobutyl-4,8,10,16,20,22-hexamethyl-3,6,9,12,15,18,21,24-octaoxo-1,7,13,19-tetraoxa-4,10,16,22-tetraazacyclotetracosan-2-yl)methyl)benzyl)-1H-pyrazol-4-yl)methyl)acetamide] was tested, and the minimal effective concentration was 0.01 to 0.1 µM.

From patent publication US11331369B2, “Endoparasitic depsipeptides” (Zoetis Services LLC, priority 2017, dated 2022)
